US10253035B2 (priority 2016, dated 2019)
“Also recorded” adds a separate entry of the source. Like-named read-outs stand apart in the source and are kept apart here.

Assays:
[1] = biological target: T1, Eis_Mtb (Mycobacterium tuberculosis, UniProt P9WFK7); assay type: biochemical
[2] = biological target: T1, Eis_Mtb; test: biochemical; assay type: biochemical
[3] = system: Mtb H37Rv; assay type: cell-based
[4] = biological target: AAC(2′)-Ic (Mycobacterium tuberculosis, UniProt P9WQG9); test: biochemical; parameters: species or system Mtb
Sequence of AAC(2′)-Ic (P9WQG9 whole entry): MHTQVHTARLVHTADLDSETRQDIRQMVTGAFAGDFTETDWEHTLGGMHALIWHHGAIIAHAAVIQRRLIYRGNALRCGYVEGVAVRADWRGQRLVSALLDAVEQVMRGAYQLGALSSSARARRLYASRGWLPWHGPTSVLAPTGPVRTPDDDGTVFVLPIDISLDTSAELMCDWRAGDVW

[5] = biological target: AAC(6′)-Ie/APH(2″)-Ia (Staphylococcus aureus, UniProt P0A0C1); test: Selectivity: KAN acetylation by AAC(6′)-Ie/APH(2″)-Ia; assay type: biochemical
Sequence of AAC(6′)-Ie/APH(2″)-Ia (P0A0C1 whole entry): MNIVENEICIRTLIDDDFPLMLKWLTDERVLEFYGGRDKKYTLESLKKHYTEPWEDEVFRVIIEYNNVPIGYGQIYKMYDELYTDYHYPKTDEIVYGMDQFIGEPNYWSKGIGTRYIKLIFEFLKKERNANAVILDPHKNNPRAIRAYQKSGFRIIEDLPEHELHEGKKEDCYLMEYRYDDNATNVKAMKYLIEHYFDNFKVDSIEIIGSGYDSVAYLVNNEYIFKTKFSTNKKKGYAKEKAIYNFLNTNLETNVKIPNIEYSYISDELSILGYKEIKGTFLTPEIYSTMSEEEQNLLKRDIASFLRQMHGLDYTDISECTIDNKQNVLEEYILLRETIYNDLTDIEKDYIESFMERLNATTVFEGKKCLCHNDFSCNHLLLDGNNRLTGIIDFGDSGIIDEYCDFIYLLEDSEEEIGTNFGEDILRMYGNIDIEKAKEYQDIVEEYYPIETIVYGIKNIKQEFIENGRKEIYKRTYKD

[6] = system: AAC(3)-IV; test: Selectivity: KAN acetylation by AAC(3)-IV; assay type: biochemical, E. coli; details: for inhibition of KAN acetylation by AAC(3)-IV (in words): concentrations as high as 200 μM
[7] = system: A549, HEK-293, and J774A.1 cells; details: KAN alone at sub-IC50 concentrations (FIG. 9)
[8] = activity of KAN against Mtb H37Rv with compound at concentration tested (100x IC50 or 100 μM), Example 1, two experiments
[9] = KAN MIC for H37Rv Mtb in the presence of compound at the specified concentration, Example 4
[10] = concentrations as high as 200 μM

T1 sequence (P9WFK7 2-402 limits assumed): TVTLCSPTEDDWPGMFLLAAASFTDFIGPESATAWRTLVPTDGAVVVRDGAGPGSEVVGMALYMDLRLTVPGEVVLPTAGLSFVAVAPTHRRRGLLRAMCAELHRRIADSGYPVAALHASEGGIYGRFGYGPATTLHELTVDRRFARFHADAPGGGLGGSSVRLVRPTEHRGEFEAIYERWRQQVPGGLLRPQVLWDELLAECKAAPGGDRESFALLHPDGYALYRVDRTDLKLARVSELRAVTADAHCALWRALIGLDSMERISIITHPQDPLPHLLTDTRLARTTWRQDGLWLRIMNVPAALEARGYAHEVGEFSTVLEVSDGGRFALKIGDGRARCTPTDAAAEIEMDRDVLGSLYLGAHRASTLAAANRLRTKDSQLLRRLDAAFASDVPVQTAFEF

With `Cc1cc(NS(=O)(=O)c2ccc3[nH]c(=O)c(=O)[nH]c3c2)ccc1Br` [Compound 1] the “Eis inhibition in the HTS (in words)” value [1] was “modest Eis inhibition; also recorded: did not display significant Eis inhibition”.

For `CCC(=O)Cn1c(C(=O)OC)cc2occc21` [Compound 1l], the IC50 [2] was over 200 µM.

In the case of `COC(=O)c1cc2occc2n1CC(=O)C(C)(C)C` [Compound 1m], the “H37Rv MICKAN” value [3, 8] is reported as at most 1.25 µg/mL and the IC50 ([2]; read-out: IC50) is reported as over 200 µM.

In the case of `CCC(=O)CN1C(=O)C2(OCCO2)c2ccccc21` [Compound 2l], the “H37Rv MICKAN” value [3, 8] is reported as at most 1.25 µg/mL and the IC50 ([2]; read-out: IC50) is reported as over 200 µM.

Molecule `O=C(CN1C(=O)C2(OCCO2)c2ccccc21)c1cccc([N+](=O)[O-])c1` [Compound 2n] has an IC50 ([2]; read-out: IC50) of 1.2 ± 0.4 µM.

`O=c1[nH]c2ccc(S(=O)(=O)Nc3ccc(Cl)c(C(F)(F)F)c3)cc2[nH]c1=O` [Compound 3] was tested, and the “Eis inhibition in the HTS (in words)” value [1] was “modest Eis inhibition”.

With `O=C(C[N+]1=C(c2ccc(F)c(F)c2)c2cccn2CC1)c1cccc(Cl)c1` [Compound 3d] the IC50 ([2]; read-out: IC50) was 0.043 ± 0.006 µM.

`O=C(C[N+]1=C(c2ccc(F)c(F)c2)c2cccn2CC1)c1ccc(F)cc1` [Compound 3h] gave an IC50 ([2]; read-out: IC50) of 0.11 ± 0.03 µM.

For `CCN(CC)CCCNC1=NS(=O)(=O)C(c2ccc(C)c(C)c2)=C1C` [Compound 3i], the “H37Rv MICKAN” value [3, 9] was 0.625 µg/mL.

In the case of `Cc1ccc(C(=O)C[N+]2=C(c3ccc(F)c(F)c3)c3cccn3CC2)cc1` [Compound 3k], the IC50 ([2]; read-out: IC50) is reported as 0.11 ± 0.03 µM.

For `CC1=C(c2ccc(F)cc2)S(=O)(=O)N=C1NCCCN1CCCCC1` [Compound 6b], the “H37Rv MICKAN” value [3, 9] was 0.625 µg/mL.

With `CC1=C(c2ccc(F)cc2)S(=O)(=O)N=C1NCCCN1CCCCC1C` (centres unmarked) [Compound 7b] the “H37Rv MICKAN” value [3, 9] was 0.625 µg/mL.

In the case of `CN1C(=O)C2(OCCO2)c2ccccc21` [Compound 8b], the “Eis inhibition in the HTS (in words)” value [1] is reported as “no Eis_Mtb inhibitory activity”.

For `CC1=C(c2ccc(Cl)cc2)S(=O)(=O)N=C1NCCCN1CCc2ccccc2C1` [Compound 11c], the “H37Rv MICKAN” value [3, 9] was 0.625 µg/mL.

In the case of `CC1=C(c2ccccc2)S(=O)(=O)N=C1NCCCN1CCOCC1` [Compound 13a], the “H37Rv MICKAN” value [3, 9] is reported as 0.625 µg/mL.

With `CC1=C(c2ccc(C)cc2)S(=O)(=O)N=C1NCCCN1CCOCC1` [Compound 13e] the “H37Rv MICKAN” value [3, 9] was 0.625 µg/mL.

`CC1=C(c2cccc(Cl)c2)S(=O)(=O)N=C1NCCCN1CCOCC1` [Compound 13g] was tested, and the “H37Rv MICKAN” value [3, 9] was 0.625 µg/mL.

For `CC1=C(c2ccc(C)c(C)c2)S(=O)(=O)N=C1NCCCN1CCOCC1` [Compound 13i], the “H37Rv MICKAN” value [3, 9] was 0.625 µg/mL.

With `COc1ccc(N(C)S(=O)(=O)c2ccc3[nH]c(=O)c(=O)[nH]c3c2)cc1` [Compound 14] the “Eis inhibition in the HTS (in words)” value [1] was “inactive”.

For `CC1=C(c2ccc(Cl)cc2)S(=O)(=O)N=C1NCCCN1CCN(C)CC1` [Compound 14c], the “H37Rv MICKAN” value [3, 9] was 0.625 µg/mL.

With `Cc1ccc(N(C)S(=O)(=O)c2ccc3[nH]c(=O)c(=O)[nH]c3c2)cc1` [Compound 15] the “Eis inhibition in the HTS (in words)” value [1] was “inactive”.

For `CCN1CCN(CCCNC2=NS(=O)(=O)C(c3ccc(C)cc3)=C2C)CC1` [Compound 15e], the “H37Rv MICKAN” value [3, 9] was 0.625 to 1.25 µg/mL.

In the case of `CCN1CCN(CCCNC2=NS(=O)(=O)C(c3ccc(C(C)C)cc3)=C2C)CC1` [Compound 15f], the “H37Rv MICKAN” value [3, 9] is reported as 0.625 to 1.25 µg/mL.

In the case of `CC1=C(c2ccc(C)c(C)c2)S(=O)(=O)N=C1NCCCN1CCN(C2CCCCC2)CC1` [Compound 17i], the “H37Rv MICKAN” value [3, 9] is reported as 0.625 to 1.25 µg/mL.

`CN(c1ccc(Br)cc1)S(=O)(=O)c1ccc2[nH]c(=O)c(=O)[nH]c2c1` [Compound 29] was tested, and the “Eis inhibition in the HTS (in words)” value ([1]; single-point HTS of library compounds) was “potently inhibited Eis activity”.

`CC1=C(c2ccccc2)S(=O)(=O)N=C1NCCN1CCCCC1` [Compound 33a] was tested, and the “H37Rv MICKAN” value [3, 9] was 0.625 µg/mL.

With `CC1=C(c2ccc(C)cc2)S(=O)(=O)N=C1NCCN1CCOCC1` [Compound 35e] the “H37Rv MICKAN” value [3, 9] was 0.625 µg/mL.

In the case of `CC1=C(c2cccc(Cl)c2)S(=O)(=O)N=C1NCCN1CCOCC1` [Compound 35g], the “H37Rv MICKAN” value [3, 9] is reported as 0.625 µg/mL.

For `CC1=C(c2cccc(Br)c2)S(=O)(=O)N=C1NCCN1CCOCC1` [Compound 35h], the “H37Rv MICKAN” value [3, 9] was 0.625 µg/mL.

For `CC1=C(c2ccc(C)c(C)c2)S(=O)(=O)N=C1NCCN1CCOCC1` [Compound 35i], the “H37Rv MICKAN” value [3, 9] was 0.625 µg/mL.

In the case of `COc1ccc(C2=C(C)C(NCCN3CCN(C)CC3)=NS2(=O)=O)cc1` [Compound 36d], the “H37Rv MICKAN” value [3, 9] is reported as 0.625 µg/mL.

In the case of `CCN1CCN(CCNC2=NS(=O)(=O)C(c3ccc(F)cc3)=C2C)CC1` [Compound 37b], the “H37Rv MICKAN” value [3, 9] is reported as 0.625 µg/mL.

In the case of `CCN1CCN(CCNC2=NS(=O)(=O)C(c3ccc(OC)cc3)=C2C)CC1` [Compound 37d], the “H37Rv MICKAN” value [3, 9] is reported as 0.625 to 1.25 µg/mL.

With `COc1cccc(N(C)S(=O)(=O)c2ccc3[nH]c(=O)c(=O)[nH]c3c2)c1` [Compound 39] the inhibition at 200 µM ([4]; read-out: inhibition of the AAC(2′)-Ic activity) was 15%, the “inhibition of KAN acetylation by AAC(6′)-Ie/APH(2″)-Ia (in words)” value [5] was “did not inhibit KAN acetylation” and the “inhibition of KAN acetylation by AAC(3)-IV (in words)” value (from here on “inhibition … by AAC(3)-IV (in words)”) [6] was “did not inhibit KAN acetylation”.

In the case of `CN(c1ccc2ccccc2c1)S(=O)(=O)c1ccc2[nH]c(=O)c(=O)[nH]c2c1` [Compound 46], the “inhibition of KAN acetylation by AAC(2′)-Ic (in words)” value [4, 10] is reported as “did not inhibit KAN acetylation”, the “inhibition of KAN acetylation by AAC(6′)-Ie/APH(2″)-Ia (in words)” value [5, 10] is reported as “did not inhibit KAN acetylation” and the “inhibition … by AAC(3)-IV (in words)” value [6] is reported as “did not inhibit KAN acetylation”.

In the case of `CC1=C(c2ccc(F)cc2)S(=O)(=O)N=C1N1CCC(N2CCCCC2)CC1` [Compound 46b], the “H37Rv MICKAN” value [3, 9] is reported as 0.625 to 1.25 µg/mL, the “inhibition of KAN acetylation by AAC(2′)-Ic (in words)” value [4] is reported as “no inhibition by either compound was observed” and the “% activity” value ([4]; 200 µM) is reported as 100%. For the same molecule, the “% activity” value ([5]; acetylation activity of AAC(6′)-Ie/APH(2″)-Ia at 200 μM inhibitor relative to that without inhibitor) was 80%, the “inhibition of KAN acetylation by AAC(6′)-Ie/APH(2″)-Ia (in words)” value [5, 10] was “no inhibition by either compound was observed” and the IC50 ([2]; read-out: IC50) was 0.092 ± 0.021 µM. The “% activity” value ([6]; AAC(3)-IV activity at 200 μM inhibitor relative to that without inhibitor) was 100% and the “inhibition … by AAC(3)-IV (in words)” value [6] was “no inhibition by either compound was observed”.

`COc1cc(N(C)S(=O)(=O)c2ccc3[nH]c(=O)c(=O)[nH]c3c2)cc2ccccc12` [Compound 47] was tested, and the “inhibition of purified Eis (in words)” value ([2]; dose-response assay) was “loss of Eis inhibition”.

With `CCCN1CCN(C2=NS(=O)(=O)C(c3ccc(C)c(C)c3)=C2C)CC1` [Compound 62i] the “H37Rv MICKAN” value [3, 9] was 0.625 µg/mL.

For `CC1=C(c2ccc(F)cc2)S(=O)(=O)N=C1NCc1ccccc1` [Compound 89b], the “H37Rv MICKAN” value [3, 9] was 1.25 µg/mL.

With `CC1=C(c2ccc(F)cc2)S(=O)(=O)N=C1NCc1ccccn1` [Compound 112b] the “H37Rv MICKAN” value [3, 9] was 0.625 µg/mL.

For `CC1=C(c2ccc(C)c(C)c2)S(=O)(=O)N=C1NCC(=O)NCc1ccc(C)o1` [Compound 116i], the “H37Rv MICKAN” value [3, 9] was 1.25 µg/mL.

`NC[C@H]1O[C@H](O[C@H]2[C@H](O)[C@@H](O[C@H]3O[C@H](CO)[C@@H](O)[C@H](N)[C@H]3O)[C@H](N)C[C@@H]2N)[C@H](O)[C@@H](O)[C@@H]1O` [KAN, kanamycin A] was tested, and the “effect on cell growth (in words)” value [7] was “promotes cell growth”.

`COC(=O)c1cc2occc2n1CC(=O)c1cccc(OC)c1` [if] gave an IC50 [2] of over 200 µM.
